Measured values: US20050113284A1, “Drug for regenerating tissue and vessel and method therefor” (priority 2001, published 2005)

Experiments:
[1] = biological target: T1, HGF receptor c-Met β chain (Homo sapiens, UniProt P08581); experiment: Yeast two-hybrid binding of MERMUC bait proteins to c-Met prey (C-terminal 91 amino acids); conditions: prey clone No. 3-309 (C-terminal 91 amino acids of human c-Met)
T1 construct: expressed in transfected cells; host or cells: yeast AH109 strain (library prey plasmid, human kidney cDNA library, CLONTECH)
Experimental: The present examination was performed using the previously reported yeast two-hybrid system (references are described above) according to conventional method and the experimental protocols provided with the reagents. […]
The binding ability of MERMUC bait protein derived from each of the bait vectors to the HGF receptor c-Met β chain was analyzed by the yeast two-hybrid system described above. […]
Each of the bait vectors was cointroduced into yeast AH109 strain with human HGF receptor c-Met prey vector (comprising DNA encoding the C-terminal 91 amino acids of the c-Met; Example 1). The binding ability of each of the bait proteins (randomly selected 10 amino acids of the human MERMUC C-terminal region) to the C-terminal region of human c-Met β chain was analyzed by the yeast two-hybrid system similar to the aforementioned Example.

MERMUC = MERMUC protein phosphorylation in [32P]-labelled MERMUC/293 cells; format: cell-based, human; conditions: for phosphorylation of MERMUC upon growth factor stimulation: MERMUC overexpressing cells cultured without Dox, HGF 20ng/ml, 5 min
Experimental: After labeling the Tet-Off/MERMUC expressing recombinant cells (MERMUC/293 cells) produced above with (^32P] orthophosphate, the cells were stimulated with human recombinant HGF (20ng/ml; 5 min). Next, cell lysate was prepared by lysing cells according to conventional method. Anti-human MERMUC polyclonal antibody prepared as above (Example 2) was added to and reacted with the obtained cell lysate, bound to protein-G Sepharose, and then MERMUC protein and anti-MERMUC polyclonal antibody complex was precipitated by centrifugation.
The precipitate was extracted with 1% SDS and similar immunoprecipitation procedure was performed to reduce the background. The sample prepared by this procedure was separated by SDS-PAGE and analyzed by autoradiography.
Furthermore, MERMUC expression in the above mentioned recombinant cells was confirmed to be constant regardless of the presence or absence of HGF by Western blotting according to conventional method using anti-human MERMUC polyclonal antibody.
The following experiments were conducted similarly as described above: • 1) epidermal growth factor (EGF) was used in place of HGF; • 2) MERMUC expressing cells were treated with HGF signaling suppressor, PI3 kinase inhibitor (LY294002; 10 μM; CALBIOCHEM), before HGF stimulation; • 3) MERMUC expressing cells were treated with HGF signaling suppressor, MEK 1/2 inhibitor (U0126; 10 μM; CALBIOCHEM), before HGF stimulation; • 4) MERMUC expressing cells were treated with PI3 kinase inhibitor (LY294002; 10 μM) before EGF stimulation; and • 5) MERMUC expressing cells were treated with MEK 1/2 inhibitor (U0126; 10 μM) before EGF stimulation.

hepatocytes = experiment: Growth factor dependent proliferation of primary hepatocytes of MERMUC-Tg and non-Tg mice; format: cell-based, mouse; conditions: 24 hr
Experimental: Primary cell culture of hepatocytes from liver cells obtained from the liver of each of the MERMUC-Tg mice (8 weeks old, 4 mice) and non-Tg mice (8 weeks old, 4 mice) was prepared by collagenase treatment according to the method of Berry and Friend, and Seglen et al. (Berry & Friend, J. Cell Biol., 1969, Vol. 43, p. 506-520; Seglen et al., Methods in Cell Biol., 1976, Vol. 13, p. 29-83).
Each of the obtained hepatocytes (2×10^3 cells) was cultured in serum-free media for 15 hr, HGF (0, 1 or 3 ng/ml) was added to the media to induce HGF-dependent cell proliferation, and was further cultured. Similarly, cultivation was performed by adding epidermal growth factor (EGF; 0, 1, or 10 ng/ml) in place of HGF to the culture as a control.
After 24 hr from HGF addition, cell numbers were counted using Cell Count Reagent SF (Nacalai tesque) according to the experimental protocol provided with the reagent to calculate the relative cell proliferation rate after HGF (or EGF) addition. Tests were conducted in triplicate.

liver = experiment: HGF-dependent liver enlargement in MERMUC-Tg and non-Tg mice; format: in vivo; conditions: human HGF expression plasmid 28 μg/mouse into tail vein, two days
Description: It has been reported that HGF is transiently overexpressed in vivo by the injection of HGF expression plasmid DNA into the tail vein of normal mice, causing liver enlargement due to the enhancement of hepatocyte proliferation (Hepatology, 2001, Vol. 33, p848-859). Therefore, to validate the down-regulation activity of MERMUC on HGF receptor mediated signaling, the method in the above mentioned report was applied to MERMUC overexpressing transgenic mice (MERMUC-Tg; 7 weeks old; male; 23-33 g) produced in the previous Example, and the effect due to the expression of MERMUC on liver enlargement induced by HGF overexpression was examined. Human HGF expression plasmid (human HGF-cDNA in pcDNA3; Invitrogen) or plasmid pcDNA3 (mock) was injected into the tail vein of each of MERMUC-Tg mouse and littermate non-Tg mouse at a concentration of 28 μg/mouse (2.3 ml saline) within 5 to 10 seconds. The HGF level in serum of each of the mice was measured using a human HGF ELISA kit (Genzyme Techne) two days after the plasmid injection. The level of HGF production due to the administered plasmid in each animal was evaluated together with the changes in liver weight upon laparotomy.

[2] = tested on: C-terminal region of human MERMUC (bait-2, bait-3); experiment: Yeast two hybrid screening of human kidney cDNA library with MERMUC baits; format: binding; conditions: bait-2 = 123 amino acid portion of the C-terminus of human MERMUC
Experimental: Specifically, yeast two hybrid system (Proc. Natl. Acad. Sci. USA., 1991, Vol.88, p.9578-9582) was performed to screen a human kidney cDNA library using cDNA corresponding to the C-terminal region of the human MERMUC as the bait (that is, fishing bait).
Two kinds of bait (bait-2 and bait-3) were designed using each of Ex.-2 and Ex.-3 as the core. Bait-2 corresponds to a 123 amino acid portion of the C-terminus (bait-2) and bait-3 corresponds to the 65 C-terminal amino acids (bait-3).
Each bait vector was obtained by inserting each DNA fragment obtained by digesting each of the PCR products with the restriction enzymes EcoRI and SalI into the EcoRI/SalI site of pGBKT7 vector (leucine biosynthesis gene as a marker; CLONTECH). In yeast, the gene within the vector is produced as a fusion protein ([fusion protein A]) with the DNA binding region (GAL4-DB) of the yeast transcription factor GAL4.
On the other hand, each cDNA of the human kidney derived cDNA library (CLONTECH) that is used for the screening with the bait vector is inserted in pADK vector (tryptophan biosynthesis gene as a marker). Therefore, proteins produced through the expression of each of these cDNAs in yeast are produced as a fusion protein ([fusion protein B]) with the GAL4 transcriptional activation region (GAL4-AD). […]

Sequence of C-terminal region of human MERMUC (bait-2, bait-3) (Q8N307 587-709): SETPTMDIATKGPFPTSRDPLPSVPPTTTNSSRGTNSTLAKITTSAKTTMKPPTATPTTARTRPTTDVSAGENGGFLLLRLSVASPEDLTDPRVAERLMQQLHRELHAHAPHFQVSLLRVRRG
T1 sequence (P08581 1300-1390): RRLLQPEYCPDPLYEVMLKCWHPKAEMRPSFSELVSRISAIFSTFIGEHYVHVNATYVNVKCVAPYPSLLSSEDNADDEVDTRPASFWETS

Compound: C53: MERMUC bait protein, C-terminal 53 amino acids of C260; amino acids 451-503 of SEQ ID NO: 10 (GENGGFLLLRLSVASPEDLTDPRVAERLMQQLHRELHAHAPHFQVSLLRVRRG; listed as Homo sapiens)
- binding activity to the HGF receptor c-Met β chain [1]: possessed the binding activity

Compound: EGF: epidermal growth factor, used as control in place of HGF
- phosphorylation of MERMUC upon growth factor stimulation (MERMUC): did not show effect to increase phosphorylation of MERMUC
- EGF stimulated hepatocyte proliferation (hepatocytes; MERMUC-Tg and non-Tg hepatocytes, EGF 0, 1 or 10 ng/ml): dosage-dependent cell proliferation

Compound: HGF: hepatocyte growth factor, ligand of c-Met; in b422 supplied by human HGF expression plasmid (human HGF-cDNA in pcDNA3)
- phosphorylation of MERMUC upon growth factor stimulation (MERMUC): strong signal band
- proliferation due to HGF stimulation of hepatocytes (hepatocytes; MERMUC-Tg derived hepatocytes compared with non-Tg, HGF 0, 1 or 3 ng/ml): significant decrease
- increase of the ratio of liver weight to body weight (liver; MERMUC-Tg mice): about 1.2 times
- increase of the ratio of liver weight to body weight (liver; non-Tg mice): about 1.6 times

Compound: N#CC(=C(/N)Sc1ccccc1N)/C(C#N)=C(/N)Sc1ccccc1N [MEK 1/2 inhibitor, U0126, reference compound]
- suppression of the enhancement of MERMUC phosphorylation (MERMUC; cells treated with inhibitor 10 μM before HGF stimulation): suppressed only in the cells treated with PI3 kinase inhibitor

Compound: clone No. 2-211: prey protein: C-terminal 56 amino acids (amino acids 448-503 of SEQ ID NO: 10) of human MERMUC (VSAGENGGFLLLRLSVASPEDLTDPRVAERLMQQLHRELHAHAPHFQVSLLRVRRG; listed as Homo sapiens)
- binding ability to the protein derived from bait-2 [2]: had binding ability
